This note sets out measurements from paper PMC8124774, “Tuning Anti-Biofilm Activity of Manganese(II) Complexes: Linking Biological Effectiveness of Heteroaromatic Complexes of Alcohol, Aldehyde, Ketone, and Carboxylic Acid with Structural Effects and Redox Activity” (International Journal of Molecular Sciences, 2021).

The subject of assay [1] is Escherichia coli ATCC 8739. In words: broth microdilution MIC, E. coli. The following applies: planktonic cells. The assay is classed as cell-based. As for the experimental part:
(§1) The antimicrobial activities of the heteroaromatic ligands, Mn(II) complexes, and commercially available drug streptomycin were tested against standard bacterial strains: Staphylococcus aureus ATCC 6538P, Escherichia coli ATCC 8739, Pseudomonas aeruginosa PAO1 (biofilm model strain), and Pseudomonas aeruginosa LES B58 (clinical isolate). The P. aeruginosa PAO1 and LES B58 isolates were derived from the International Pseudomonas aeruginosa Reference Panel (http://bccm.belspo.be/about-us/bccm-lmg, accessed on 30 March 2021).
(§2) All bacteria species were cultivated in trypticase soy broth (TSB) medium (Biocorp, Warsaw, Poland) for 18 h at 37 °C with shaking (160 rpm). Overnight cultures of bacteria were diluted 1:100 into fresh TSB medium and then placed in each of the 96 wells of a microtiter transparent plate (Greiner, Monroe, NC, USA). The manganese(II) complexes—[Mn-pyOH-SO4]n, Mn-imCHO-NO3, Mn-imCHO-Cl, Mn-dipyCO-NO3—and the ligands—pyOH, pyCOOH—were prepared by dissolving compounds in distilled water. […] The starting stock solution was of 2-mM concentration.
(§3) The quantitative assay of the antibacterial activity was performed by the broth microdilution method, in 96-well microtiter plates, in order to establish the minimum inhibitory concentration (MIC). To this purpose, serial two-fold dilutions of the compounds ranging between 1 and 0.0625 mM were made. The details of the experiment were presented in our previous paper.
A general note: Dilution methods test growth across graded concentrations, often in twofold steps.

The test system of assay [2] is Pseudomonas aeruginosa PAO1. In words: broth microdilution MIC, P. aeruginosa PAO1. The assay is classed as cell-based. The settings on record: P. aeruginosa PAO1, planktonic cells. Here is the method:
as §1, §2, §3

In assay [3] the test system is P. aeruginosa PAO1 biofilm. In words: biofilm formation, crystal violet staining assay. The assay is classed as cell-based, Pseudomonas aeruginosa. The settings on record: P. aeruginosa PAO1, vs untreated control. Here is the method: as §2
To evaluate the effect of the compounds on P. aeruginosa biofilm formation, a crystal violet staining assay was used, following previously described protocols. The concentration of the investigated compounds was in the range 0.0625–1 mM. The amount of biofilm formed was determined by measuring the absorbance at λ = 595 nm with the Infinite M200 PRO microplate reader (Tecan, Männedorf, Switzerland). The measurement results, expressed in absorbance units, were converted into percentages to allow the comparison of numerical data obtained in different experiments.

Assay [4] relates to P. aeruginosa PAO1 biofilm. The experiment in a line: LIVE/DEAD fluorescence assay of biofilm (epifluorescence microscopy). The assay is classed as cell-based, Pseudomonas aeruginosa. The settings on record: 0.5 mM, 24 h. Here is the method: The effect of the manganese complexes (the concentration of 0.5 mM) on the cell viability of P. aeruginosa in the biofilm layers using the LIVE/DEAD fluorescence assay was also assessed. The mixture of two fluorescent dyes, the dye SYTO-9, and the propidium iodide (included in the FilmTracer™ LIVE/DEAD Biofilm Viability Kit) was used to distinguish live and dead cells. The SYTO-9 can penetrate most membranes freely and is used for assessing total cell counts. In contrast, propidium iodide penetrates cells with compromised membranes, differentiating the damaged bacterial cells from a metabolic active, live cells. As a result, microorganisms with intact cell membranes stain fluorescent green, whereas microorganisms with damaged membranes stain fluorescent red. […] The presence of compounds in the culture caused the aggregation of cells into microcolonies, which was not observed in the control. This observation proves that bacteria were trying to protect themselves against the effect of the complexes tested.
Fluorescence microscopy was used to image live/dead cells in the P. aeruginosa PAO1 biofilm. First, the overnight culture of bacteria was diluted with fresh TSB medium (1:100). […]

Assay [5] concerns primary human fibroblasts (VH10). The experiment in a line: cytotoxicity, MTT test. The assay is classed as cell-based. The following applies: VH10 cells, 24 h, 15–1000 µM. As for the experimental part: Primary human fibroblasts (VH10) were cultured at 37 °C in a humidified 5% CO2 atmosphere in plastic dishes in Dulbecco’s modified eagle medium (DMEM) supplemented with 10% heat inactivated fetal calf serum, 2 mM of l-glutamine, and antibiotics (100 units/mL penicillin and 100 µg/mL streptomycin). Cytotoxic properties of manganese complexes were measured by EZcount^TM MTT cell assay kit (HiMedia Laboratories Pvt., Ltd., Mumbai, India) in accordance with the manufacturer’s instructions. Cells were seeded into a 96-well plate and incubated with manganese complexes in the concentration range of 15–1000 µM for 24 h at 37 °C in a humidified atmosphere of 5% CO2. After incubation, a solution of MTT (3-[4,5-dimethylthiazol-2-yl]-2, 5-diphenyl tetrazolium bromide) at a concentration (1 mg/mL) was added to each well. After incubation at 37 °C for 4 h, 100 µL of 0.04 M HCl in isopropanol was added to each well and mixed thoroughly to dissolve the dark blue crystals. The measurement of absorbance of the solution related to the number of live cells was conducted on a TECAN Spark Microplate Reader (TECAN, Männedorf, Switzerland) at 570 nm with a reference wavelength 600 nm. All samples were tested in three independent experiments. Results were normalized to the control.
Inhibitory concentrations (IC50) represent the concentrations of the tested samples required to inhibit 50% cell proliferation and were calculated from the mean values of data from wells.
(Tetrazolium assays rely on reduction of a dye to a coloured formazan, in cell work by metabolically active cells.)

Structures are written as SMILES. Where “and” joins values, the source holds several entries; their conditions need not be identical. Equal values may be shown once. Bounds are passed on as bounds.

By MIC is commonly meant the lowest concentration found to suppress growth. A low value points to a more susceptible organism. A word on the IC50: it is the concentration needed to halve the response being measured. A lower IC50 goes with higher potency.

With `Cc1[nH]cnc1C=O.Cc1[nH]cnc1C=O.O=[N+]([O-])[O-].O=[N+]([O-])[O-].[Mn+2]` [Mn-imCHO-NO3], the MIC in assay [1] was > 1 mM and > 399 μg/ml. Moreover, the MIC in assay [2] is > 1 mM and > 399 μg/ml. Moreover, in assay [3], the “% Inhibit. Biofilm (0.25 mM)” value was found to be 52% and the “% Inhibit. Biofilm (0.5 mM)” value came out at 56%. Besides, the “effect on biofilm structure and cell viability (LIVE/DEAD images)” value in assay [4] was “damage to the bacterial cell walls”. For the same molecule, in assay [5], the IC50 is greater than 1000 µM.
Regarding `O=[N+]([O-])[O-].O=[N+]([O-])[O-].OCc1ccccn1.OCc1ccccn1.[Mn+2]` [Mn-pyOH-NO3], the MIC in assay [1] is > 1 mM and > 397 μg/ml. Further, the MIC in assay [2] was > 1 mM and > 397 μg/ml. For the same molecule, in assay [3], the “% Inhibit. Biofilm (0.25 mM)” value was determined as 49% and the “% Inhibit. Biofilm (0.5 mM)” value is 54%. For the same molecule, the “effect on biofilm structure and cell viability (LIVE/DEAD images)” value in assay [4] was “damage to the bacterial cell walls”. The same molecule showed a half-maximal inhibitory concentration (IC50) in assay [5] of 1000 µM.
